In the supplement of paper PMC10307832:

How the values were obtained:
Experiment in all cases: relative viability (nuclei count vs DMSO), 5 days (fraction); higher = more cells survive
Serdemetan + Pictilisib = compound: c1ccc2c(CCNc3ccc(Nc4ccncc4)cc3)c[nH]c2c1 [Serdemetan] + CS(=O)(=O)N1CCN(Cc2cc3nc(-c4cccc5[nH]ncc45)nc(N4CCOCC4)c3s2)CC1 [Pictilisib] (partner 1 µM)
Procedure, shortened: (§1)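 Cells from lung cancer lines were seeded into 1536-well plates and, one day later, dosed by pin tool. Treatments were either a single drug or a fixed dose of an anchor drug with five library-drug doses (not always all listed) in √10 steps. After 5 days, nuclei were stained in a one-step fixation (final 0.05% Triton X-100, 1% formaldehyde, 1 ug/ml Hoechst) and counted on 4× images, and relative viability is the treated-to-vehicle nuclei ratio, as the median of duplicate plates.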

Serdemetan + Olaparib = compound: c1ccc2c(CCNc3ccc(Nc4ccncc4)cc3)c[nH]c2c1 [Serdemetan] + O=C(c1cc(Cc2n[nH]c(=O)c3ccccc23)ccc1F)N1CCN(C(=O)C2CC2)CC1 [Olaparib] (partner 8 µM)
Procedure, shortened: as §1

Serdemetan + Palbociclib = compound: c1ccc2c(CCNc3ccc(Nc4ccncc4)cc3)c[nH]c2c1 [Serdemetan] + CC(=O)c1c(C)c2cnc(Nc3ccc(N4CCNCC4)cn3)nc2n(C2CCCC2)c1=O [Palbociclib] (partner 0.5 µM)
Procedure, shortened: as §1

Selisistat + Palbociclib = compound: C1CC(C2=C(C1)C3=C(N2)C=CC(=C3)Cl)C(=O)N [Selisistat] + CC(=O)c1c(C)c2cnc(Nc3ccc(N4CCNCC4)cn3)nc2n(C2CCCC2)c1=O [Palbociclib] (partner 0.5 µM)
Procedure, shortened: as §1

Cell Line | relative viability (Serdemetan + Pictilisib; first compound 0.04 µM) | relative viability (Serdemetan + Pictilisib; first compound 0.1265 µM) | relative viability (Serdemetan + Pictilisib; first compound 0.4 µM) | relative viability (Serdemetan + Pictilisib; first compound 1.265 µM) | relative viability (Serdemetan + Pictilisib; first compound 4 µM) | relative viability (Serdemetan + Olaparib; first compound 0.04 µM) | relative viability (Serdemetan + Olaparib; first compound 0.1265 µM) | relative viability (Serdemetan + Olaparib; first compound 0.4 µM) | relative viability (Serdemetan + Olaparib; first compound 1.265 µM) | relative viability (Serdemetan + Olaparib; first compound 4 µM) | relative viability (Serdemetan + Palbociclib; first compound 0.04 µM) | relative viability (Serdemetan + Palbociclib; first compound 0.1265 µM) | relative viability (Serdemetan + Palbociclib; first compound 0.4 µM) | relative viability (Serdemetan + Palbociclib; first compound 1.265 µM) | relative viability (Serdemetan + Palbociclib; first compound 4 µM) | relative viability (Selisistat + Palbociclib; first compound 0.4 µM) | relative viability (Selisistat + Palbociclib; first compound 1.265 µM) | relative viability (Selisistat + Palbociclib; first compound 4 µM) | relative viability (Selisistat + Palbociclib; first compound 12.65 µM) | relative viability (Selisistat + Palbociclib; first compound 40 µM)
NCI-H2009 | 0.793 | 0.822 | 0.887 | 0.424 | 0.662 | 0.777 | 0.687 | 0.688 | 0.496 | 0.497 | 0.238 | 0.227 | 0.258 | 0.162 | 0.193 | 0.202 | 0.184 | 0.136 | 0.202 | 0.191
NCI-H2023 | 0.219 | 0.28 | 0.19 | 0.182 | 0.189 | 0.512 | 0.459 | 0.323 | 0.152 | 0.203 | 0.355 | 0.328 | 0.341 | 0.263 | 0.215 | 0.34 | 0.354 | 0.401 | 0.378 | 0.353
NCI-H2085 | 0.486 | 0.516 | 0.483 | 0.357 | 0.438 | 0.818 | 0.676 | 0.597 | 0.44 | 0.393 | 0.46 | 0.457 | 0.466 | 0.382 | 0.342 | 0.486 | 0.476 | 0.433 | 0.522 | 0.496
NCI-H2087 | 0.961 | 0.966 | 0.814 | 0.493 | 0.422 | 0.481 | 0.473 | 0.433 | 0.207 | 0.217 | 0.28 | 0.255 | 0.236 | 0.147 | 0.215 | 0.224 | 0.278 |  | 0.261 | 0.287
NCI-H2126 | 0.552 | 0.473 | 0.428 | 0.521 | 0.542 | 0.885 | 0.914 | 0.855 | 0.724 | 0.751 | 0.356 | 0.379 | 0.349 | 0.329 | 0.354 | 0.377 | 0.369 | 0.336 | 0.362 | 0.37
NCI-H2170 | 0.365 | 0.34 | 0.311 | 0.28 | 0.349 | 0.641 | 0.571 | 0.544 | 0.469 | 0.352 | 0.362 | 0.428 | 0.411 | 0.301 | 0.382 | 0.436 | 0.396 | 0.413 | 0.458 | 0.475
NCI-H2228 | 0.322 | 0.26 | 0.327 | 0.257 | 0.214 | 0.493 | 0.458 | 0.358 | 0.301 | 0.264 | 0.644 | 0.61 | 0.511 | 0.115 | 0.233 | 0.797 | 0.726 | 0.802 | 0.795 | 0.801
NCI-H2347 | 0.718 | 0.517 | 0.71 | 0.69 | 0.464 | 0.568 | 0.535 | 0.59 | 0.424 | 0.439 | 0.448 | 0.367 | 0.403 | 0.358 | 0.406 | 0.38 | 0.438 |  | 0.409 | 0.447
NCI-H2405 | 0.457 | 0.403 | 0.491 | 0.42 | 0.41 | 0.809 | 0.829 | 0.86 | 0.795 | 0.779 | 0.479 | 0.515 | 0.549 | 0.466 | 0.52 | 0.534 | 0.536 |  | 0.578 | 0.502
NCI-H3122 | 0.627 | 0.669 | 0.6 |  | 0.55 | 0.597 | 0.614 | 0.557 | 0.407 | 0.367 | 0.192 | 0.227 | 0.224 | 0.205 | 0.214 | 0.223 | 0.191 |  | 0.191 | 0.178
PC-3 [JPC-3] | 0.748 | 0.693 |  | 0.705 | 0.735 | 1.11 | 1.08 | 0.969 | 1.09 | 1.18 | 0.562 | 0.492 | 0.528 | 0.467 | 0.519 | 0.608 | 0.636 |  | 0.571 | 0.529
PC-14 | 0.626 | 0.631 | 0.596 | 0.634 | 0.367 | 0.307 | 0.261 |  | 0.204 | 0.167 | 0.546 | 0.546 |  | 0.467 | 0.346 | 0.513 | 0.498 | 0.528 | 0.53 | 0.489
RERF-LC-KJ | 0.433 | 0.561 | 0.569 | 0.475 | 0.388 | 1.03 | 0.872 | 0.889 | 0.747 | 0.835 | 1.06 | 0.962 | 0.975 | 1.04 | 0.824 | 1.15 | 1.02 | 0.995 | 0.909 | 0.952
SK-LU-1 | 0.572 | 0.47 | 0.713 | 0.494 | 0.407 | 0.463 | 0.369 | 0.479 | 0.308 | 0.365 | 0.37 | 0.393 | 0.365 | 0.319 | 0.346 | 0.394 | 0.361 | 0.367 | 0.43 | 0.411
SK-MES-1 | 0.333 | 0.378 | 0.377 | 0.363 | 0.205 | 0.688 | 0.687 | 0.635 | 0.522 | 0.43 | 0.271 | 0.309 | 0.285 | 0.302 | 0.325 | 0.34 | 0.347 | 0.309 | 0.314 | 0.378
SW 1573 | 0.533 | 0.545 | 0.494 | 0.182 | 0.177 | 0.571 | 0.464 | 0.445 | 0.21 | 0.296 | 0.446 | 0.362 | 0.444 | 0.343 | 0.234 | 0.353 | 0.366 |  | 0.371 | 0.388
